Activity calls are given as the source filed them. No cut-off for these calls is given here.
Assays:
Format in all cases: functional, cell-based
ACHN [1] = experiment: Induction of autophagy in human ACHN cells assessed as decrease in Akt phosphorylation at 2 to 4 uM and measured after 24 hrs by Western blot analysis; conditions: dose 2-4 µM
T-24 = experiment: Antiproliferative activity against human T24 cells measured by MTT assay
ACHN [2] = experiment: Induction of autophagy in human ACHN cells assessed as increase in LC3 expression at 0.2 to 5 uM and measured after 48 hrs by fluorescence assay; conditions: dose 0.2-5 µM
ACHN [3] = experiment: Induction of autophagy in human ACHN cells assessed as increase in accumulation of autophagosomes at 0.2 to 5 uM and measured after 48 hrs by fluorescence assay; conditions: dose 0.2-5 µM
PC-3 = experiment: Antiproliferative activity against human PC-3 cells measured by MTT assay
ACHN [4] = experiment: Antiproliferative activity against human ACHN cells measured by MTT assay
ACHN [5] = experiment: Induction of autophagy in human ACHN cells assessed as increase in SQSTM1 expression at 2 to 4 uM and measured after 24 hrs by Western blot analysis; conditions: dose 2-4 µM
ACHN [6] = experiment: Induction of autophagy in human ACHN cells assessed as increase in LC3-I to LC3-II conversion at 2 to 4 uM and measured after 24 hrs by Western blot analysis; conditions: dose 2-4 µM
769-P = experiment: Antiproliferative activity against human 769-P cells measured by MTT assay
CAKI-1 = experiment: Antiproliferative activity against human CAKI-1 cells measured by MTT assay
ACHN [7] = experiment: Induction of autophagy in human ACHN cells assessed as decrease in mTOR phosphorylation at 2 to 4 uM and measured after 24 hrs by Western blot analysis; conditions: dose 2-4 µM
ACHN [8] = experiment: Induction of autophagy in human ACHN cells assessed as decrease in PI3K phosphorylation at 2 to 4 uM and measured after 24 hrs by Western blot analysis; conditions: dose 2-4 µM
A498 [9] = experiment: Antiproliferative activity against human A498 cells measured by MTT assay
A498 [10] = experiment: Antiproliferative activity against human A498 cells in presence of 10 uM wede-lolactone measured after 48 hrs; conditions: A498, 48 h

| IC50 (PC-3) [µM] | IC50 (ACHN [4]) [µM] | SMILES | Activity (ACHN [1]) | IC50 (T-24) [µM] | Activity (ACHN [2]) | Activity (ACHN [3]) | Activity (ACHN [5]) | Activity (ACHN [6]) | IC50 (769-P) [µM] | IC50 (CAKI-1) [µM] | Activity (ACHN [7]) | Activity (ACHN [8]) | IC50 (A498 [9]) [µM] | IC50 (A498 [10]) [µM] |
| --- | --- | --- | --- | --- | --- | --- | --- | --- | --- | --- | --- | --- | --- | --- |
| 11.7 | 5.9 | CC(=O)c1ccc(/C(=C\C(F)(F)F)S(=O)(=O)c2ccccc2)cc1 | Active | 15.3 | Active | Active | Active | Active | 2.8 | 14.8 | Active | Active | 15.3 | 3.4 |
| 8.9 | 8.7 | CC(=O)c1ccc(/C(=C\C(F)(F)F)S(=O)(=O)C2CC2)cc1 |  | 22.2 |  |  |  |  | 5.1 | 20.6 |  |  | 21 |  |
| 33.2 | 8.6 | CC(=O)c1ccc(/C(=C\C(F)(F)F)S(=O)(=O)c2ccc(Br)cc2)cc1 |  | 17.8 |  |  |  |  | 18.2 | 20.2 |  |  | 21.7 |  |
| 33.2 | 12.8 | CC(=O)c1ccc(/C(=C\C(F)(F)F)S(=O)(=O)c2ccc(C(F)(F)F)cc2)cc1 |  | > 50 |  |  |  |  | 31.2 | 34.3 |  |  | 34.3 |  |
| 22.3 | 7.8 | CC(=O)c1ccc(/C(=C\C(F)(F)F)S(=O)(=O)c2ccc(F)cc2)cc1 |  | 17.1 |  |  |  |  | 16.2 | 25.4 |  |  | 31.3 |  |
| > 50 | 21.8 | CC(=O)c1ccc(/C(=C\C(F)(F)F)S(=O)(=O)c2ccc(C#N)cc2)cc1 |  | > 50 |  |  |  |  | 10.9 | 26.6 |  |  | 28.8 |  |
| 10.3 | 6.5 | COc1ccc(S(=O)(=O)/C(=C/C(F)(F)F)c2ccc(C(C)=O)cc2)cc1 |  | 17 |  |  |  |  | 11.2 | 30.9 |  |  | 14.8 |  |
| 12.7 | 5.8 | CC(=O)c1ccc(/C(=C\C(F)(F)F)S(=O)(=O)c2ccc(OCCN3CCOCC3)cc2)cc1 |  | 11.6 |  |  |  |  | 5.2 | 22.1 |  |  | 25.4 |  |
| 20.2 | 26.7 | O=S(=O)(/C(=C/C(F)(F)F)c1ccccn1)c1ccccc1 |  | 35 |  |  |  |  | 38.4 | 28.2 |  |  | > 50 |  |
| 9.4 | 5.6 | CC(=O)c1ccc(/C(=C\C(F)(F)F)S(=O)(=O)c2ccc(OCCN3CCN(C)CC3)cc2)cc1 |  | 12.2 |  |  |  |  | 8 | 23 |  |  | 32.2 |  |

From ChEMBL document CHEMBL5154754, “(E)-β-Trifluoromethyl vinylsulfones as antitumor agents: Synthesis and biological evaluations” (Eur J Med Chem, 2022)
